#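 These data come from cells grown in 96-well plates and exposed to compound for 48 hours at five concentrations. Definition used: TGI = concentration required for complete inhibition of growth.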
# System: DLD-1 colon
# Assay: inhibition of tumour cell growth, NCI panel, 48 h
row,Structure (SMILES),TGI [µM]
1,CN(C)C(=S)/N=c1\sn(C)/c(=N\C(=S)N(C)C)n1C,> 100
2,COC(=O)C1CCCC2(C1)OCCO2 (centres undefined),> 100
3,COC(=O)/C(C#N)=C1\N=NNN1c1ccc(OC)cc1,> 100
4,COC(=O)/C(=C/c1ccc(OC)cc1)C(C(=O)O)=C1CCCC1,> 100
5,N#C/C(=C\c1ccc2ccccc2c1)C(=O)c1ccccc1,> 100
6,O=C1N=C2Sc3ccc4ccccc4c3N2C1=O,95

# System: DMS 114 small cell lung
# Assay: inhibition of tumour cell growth, NCI panel, 48 h
row,Structure (SMILES),TGI [µM]
1,O=C(CC1C(=O)Nc2ccccc2S1=O)Nc1cc(Cl)ccc1Cl (centres undefined),> 100
2,COC(=O)C1CCCC2(C1)OCCO2 (centres undefined),> 100
3,COC(=O)/C(C#N)=C1\N=NNN1c1ccc(OC)cc1,> 100
4,N#C/C(=C\c1ccc2ccccc2c1)C(=O)c1ccccc1,> 100
5,O=C1N=C2Sc3ccc4ccccc4c3N2C1=O,> 100

# System: DMS 273 small cell lung
# Assay: inhibition of tumour cell growth, NCI panel, 48 h
row,Structure (SMILES),TGI [µM]
1,O=C(CC1C(=O)Nc2ccccc2S1=O)Nc1cc(Cl)ccc1Cl (centres undefined),> 100
2,CN(C)C(=S)/N=c1\sn(C)/c(=N\C(=S)N(C)C)n1C,> 100
3,COC(=O)C1CCCC2(C1)OCCO2 (centres undefined),> 100
4,COC(=O)/C(C#N)=C1\N=NNN1c1ccc(OC)cc1,> 100
5,COC(=O)/C(=C/c1ccc(OC)cc1)C(C(=O)O)=C1CCCC1,> 100
6,N#C/C(=C\c1ccc2ccccc2c1)C(=O)c1ccccc1,> 100
7,O=C1N=C2Sc3ccc4ccccc4c3N2C1=O,53.2

# System: DU-145 prostate
# Assay: inhibition of tumour cell growth, NCI panel, 48 h
row,Structure (SMILES),TGI [µM]
1,N#C/C(=C\c1ccc2ccccc2c1)C(=O)c1ccccc1,> 100

# System: EKVX NSCLC
# Assay: inhibition of tumour cell growth, NCI panel, 48 h
row,Structure (SMILES),TGI [µM]
1,O=C(CC1C(=O)Nc2ccccc2S1=O)Nc1cc(Cl)ccc1Cl (centres undefined),> 100
2,CN(C)C(=S)/N=c1\sn(C)/c(=N\C(=S)N(C)C)n1C,> 100
3,COC(=O)C1CCCC2(C1)OCCO2 (centres undefined),> 100
4,COC(=O)/C(C#N)=C1\N=NNN1c1ccc(OC)cc1,> 100
5,COC(=O)/C(=C/c1ccc(OC)cc1)C(C(=O)O)=C1CCCC1,> 100
6,N#C/C(=C\c1ccc2ccccc2c1)C(=O)c1ccccc1,> 100
7,O=C1N=C2Sc3ccc4ccccc4c3N2C1=O,47.9

# System: HCC-2998 colon
# Assay: inhibition of tumour cell growth, NCI panel, 48 h
row,Structure (SMILES),TGI [µM]
1,O=C(CC1C(=O)Nc2ccccc2S1=O)Nc1cc(Cl)ccc1Cl (centres undefined),> 100
2,CN(C)C(=S)/N=c1\sn(C)/c(=N\C(=S)N(C)C)n1C,> 100
3,COC(=O)C1CCCC2(C1)OCCO2 (centres undefined),> 100
4,COC(=O)/C(C#N)=C1\N=NNN1c1ccc(OC)cc1,> 100
5,COC(=O)/C(=C/c1ccc(OC)cc1)C(C(=O)O)=C1CCCC1,> 100
6,N#C/C(=C\c1ccc2ccccc2c1)C(=O)c1ccccc1,> 100
7,O=C1N=C2Sc3ccc4ccccc4c3N2C1=O,68.7

# System: HCT-116 colon
# Assay: inhibition of tumour cell growth, NCI panel, 48 h
row,Structure (SMILES),TGI [µM]
1,O=C(CC1C(=O)Nc2ccccc2S1=O)Nc1cc(Cl)ccc1Cl (centres undefined),> 100
2,CN(C)C(=S)/N=c1\sn(C)/c(=N\C(=S)N(C)C)n1C,> 100
3,COC(=O)C1CCCC2(C1)OCCO2 (centres undefined),> 100
4,COC(=O)/C(C#N)=C1\N=NNN1c1ccc(OC)cc1,> 100
5,COC(=O)/C(=C/c1ccc(OC)cc1)C(C(=O)O)=C1CCCC1,> 100
6,N#C/C(=C\c1ccc2ccccc2c1)C(=O)c1ccccc1,> 80.4
7,O=C1N=C2Sc3ccc4ccccc4c3N2C1=O,32.9

# System: HCT-15 colon
# Assay: inhibition of tumour cell growth, NCI panel, 48 h
row,Structure (SMILES),TGI [µM]
1,O=C(CC1C(=O)Nc2ccccc2S1=O)Nc1cc(Cl)ccc1Cl (centres undefined),> 100
2,CN(C)C(=S)/N=c1\sn(C)/c(=N\C(=S)N(C)C)n1C,> 100
3,COC(=O)C1CCCC2(C1)OCCO2 (centres undefined),> 100
4,COC(=O)/C(C#N)=C1\N=NNN1c1ccc(OC)cc1,> 100
5,COC(=O)/C(=C/c1ccc(OC)cc1)C(C(=O)O)=C1CCCC1,> 100
6,N#C/C(=C\c1ccc2ccccc2c1)C(=O)c1ccccc1,> 100
7,O=C1N=C2Sc3ccc4ccccc4c3N2C1=O,61.9

# System: HL-60(TB) leukemia
# Assay: inhibition of tumour cell growth, NCI panel, 48 h
row,Structure (SMILES),TGI [µM]
1,O=C(CC1C(=O)Nc2ccccc2S1=O)Nc1cc(Cl)ccc1Cl (centres undefined),> 100
2,CN(C)C(=S)/N=c1\sn(C)/c(=N\C(=S)N(C)C)n1C,> 100
